# Read-outs that look alike come from different tables or passages of the source. Bridge positions count the residues as written; N and C are the ends. Ends that are not written are not given here.
# Assays:
# E. coli (ATCC 25922) = assay type: cell-based, Escherichia coli
# Procedure: (§1) The minimum inhibitory concentrations (MIC) of AvBDs were determined according to the guidelines of the Clinical and Laboratory Standards Institute (CLSI). The Muller Hinton II broth used in standard MIC assays contained 20–25 mg/L of calcium and 10–12.5 mg/L of magnesium. Modified MICs of AvBDs were also determined under a low-salt and low-nutrient condition by using 100× diluted Muller Hinton II broth containing 0.2 mg/L of calcium, 0.1 mg/L magnesium and 5 mM (292 mg/L) NaCl. MIC obtained under the low-salt and low-nutrient condition was referred to as MIC-ls. AvBD peptides were two-fold serially diluted (2 to 256 μg/ml) in a 96-well microtiter plate. An equal volume (μl) of bacterial suspension was added to each well of the plate. The final bacterial concentration in the wells was 5 × 10^5 CFU/ml. […] To complement MIC-ls assays, the minimum bactericidal concentrations (MBC) were evaluated by sub-culturing the contents of the first two clear wells obtained in the MIC-ls assay onto LB agar plates. All assays were conducted in triplicate. The lowest peptide concentration inhibiting more than 99% of bacterial growth was defined as MBC-ls. AvBD analogues were regarded as bactericidal if the MBC was no more than four times the MIC [29].
# [1] = system: Escherichia coli (ATCC 25922); assay type: cell-based
# Procedure: (§2) Escherichia coli (ATCC 25922), Pseudomonas aeruginosa (ATCC 27853), Salmonella enteric serovar Typhimurium (ATCC 14028) and Staphylococcus aureus (ATCC 29213) were used to assess the antimicrobial activity of AvBD analogues. All bacterial strains were grown on Luria-Bertani (LB) agar plates or Trypticase Soy Agar with 5% Sheep Blood (TSA, Thermo Fisher Scientific) plates at 37 °C. Antimicrobial activity was determined by a colony counting assay. In brief, bacteria were resuspended in 100-fold diluted Mueller Hinton II broth with 5 mM NaCl (minimal growth medium) to obtain a final bacterial concentration of 2 × 10^5 CFU/ml. Twenty-five microliters of bacterial suspension and 25 μl of AvBD analogue solution were mixed in the wells of a 96-well polypropylene microtiter plate (Nunc™, Thermo Fisher Scientific). The final peptide concentrations were 2, 4, 8, 16, 32, 64 and 128 μg/ml. The minimal growth medium without AvBD peptide was included as a negative control. The bacterial-peptide mixtures were incubated at 37 °C for 2 h, ten-fold serially diluted and plated on LB agar plates. The numbers of bacteria colonies were enumerated after 16 h of incubation at 37 °C. Antimicrobial activity was expressed as percent of killing using the following formula: (CFUcontrol - CFUtreated) / CFUcontrol × 100%. To assess the resistance of AvBD analogues to sodium chloride (NaCl), antimicrobial assays were carried out in the presence of 5 mM, 50 mM, 100 mM or 150 mM NaCl. All assays were performed in triplicate.
# [2] = system: Pseudomonas aeruginosa (ATCC 27853); assay type: cell-based
# Procedure: as §2
# [3] = system: Staphylococcus aureus (ATCC 29213); assay type: cell-based
# Procedure: as §2
# [4] = system: Salmonella enteric serovar Typhimurium (ATCC 14028); assay type: cell-based
# Procedure: as §2
# S. aureus (ATCC 29213) = assay type: cell-based, Staphylococcus aureus
# Procedure: as §1
# [5] = system: P. aeruginosa (ATCC 27853); assay type: cell-based, Pseudomonas aeruginosa
# Procedure: as §1
# CHO-K1 cells = experiment: MTT cell cytotoxicity assay; assay type: cell-based; details: 256 μg/ml; 4, 12, 24 and 48 hours; Student t-test treated vs untreated; n = 3; Figure S1
# Procedure: (§3) Chicken macrophage cell lines MQ-NCSU and HD11 were maintained in RPMI-1640 media supplemented with 10% fetal bovine serum (FBS), 2% chicken serum, 100 U/ml penicillin and 100 μg/ml streptomycin (Sigma-Aldrich) at 37 °C in humidified air with 5% CO2. CHO-K1 cells were cultured in the same media without 2% chicken serum. For CCR2-transfected CHO-K1 cells, the medium was supplemented with 500 μg/ml G418 was added (Sigma-Aldrich). Murine immature dendritic cell line JAWSII (ATCC CRL-11904™) was cultured in Alpha minimum essential medium containing 4 mM L-glutamine, 1 mM sodium pyruvate, 5 ng/ml murine Granulocyte macrophage colony-stimulating factor (GM-CSF), 20% FBS, 100 U/ml penicillin and 100 μg/ml streptomycin at 37 °C in humidified air with 5% CO2. The cell cytotoxicity was determined using the MTT (3-(4, 5-dimethylthiazol-2-yl)-2, 5-diphenyltetrazolium bromide metabolic activity assay according to the manufacturer’s instruction (Thermo Fisher Scientific). Briefly, cells (5 × 10^3 cells/well) were seeded in 96-well tissue culture plates, incubated overnight and treated with AvBDs at concentrations of 4, 16, 64 and 256 μg/ml for 4, 12, 24 and 48 h at 37 °C. After treatment, 20 μl of 12 mM MTT solution was added to each well. The plate was incubated for 4 h and read at 540 nm. Viability was expressed as percentage of viable cells relative to the untreated control. The experiments were performed in triplicate.
# [6] = system: S. Typhimurium (ATCC 14028); assay type: cell-based, Salmonella enteric serovar Typhimurium
# Procedure: as §1
# [7] = system: avian and mammalian cell lines; details: previous findings; cited from earlier work
# Procedure: Data on the highest peptide concentration (256 μg/ml) at various exposure times were presented in Additional file 1: Figure S1. The results were consistent with our previous findings that AvBD-6 and AvBD-12 were non-cytotoxic to avian and mammalian cell lines.
# JAWSII cells = experiment: MTT cell cytotoxicity assay; assay type: cell-based, murine; details: 256 μg/ml; 4, 12, 24 and 48 hours; Student t-test treated vs untreated; n = 3; Figure S1
# Procedure: as §3, with “The experiments were performed in triplicate.” left out
# HD11 cells = experiment: MTT cell cytotoxicity assay; assay type: cell-based, chicken; details: 256 μg/ml; 4, 12, 24 and 48 hours; Student t-test treated vs untreated; n = 3; Figure S1
# Procedure: as §3
# MQ-NCSU cells = experiment: MTT cell cytotoxicity assay; assay type: cell-based, chicken; details: 256 μg/ml; 4, 12, 24 and 48 hours; Student t-test treated vs untreated; n = 3; Figure S1
# Procedure: as §3
# [8] = system: mouse immature dendritic JAWSII cells; experiment: Chemotaxis assay, 48-well microchemotaxis chamber; assay type: cell-based; details: peptide 64 μg/ml
# Procedure: Migration of JAWSII and CCR2-CHO-K1 cells in response to AvBD-12 analogues was determined using a 48-well microchemotaxis chamber technique as previously described. Chemotaxis buffer (Minimum Essential Medium containing 0.1% BSA, 100U/ml penicillin, and 100 μg/ml streptomycin) and bacterial peptide N-Formyl-methionyl-leucyl-phenylalanine (fMLF, Sigma-Aldrich) were included as negative and positive controls, respectively. The results were presented as chemotactic index (C.I.). C.I. = number of migrated cells induced by AvBDs / number of migrated cells induced by chemotactic buffer. The assay was repeated five times.
# [9] = 100× diluted Muller Hinton II broth, 5 mM NaCl, 5 × 10^5 CFU/ml, 37 °C, 24 h, triplicate
# [10] = CLSI, standard Muller Hinton II broth, 5 × 10^5 CFU/ml, 37 °C, 24 h, triplicate
# [11] = sub-culture of clear MIC-ls wells on LB agar, lowest concentration inhibiting more than 99% of growth, triplicate
# [12] = peptide 16 μg/ml, 2 h at 37 °C, 100-fold diluted Mueller Hinton II broth with 5 mM NaCl, colony count, n = 3
sequence,measurement,setting,value
"GPDSCNHDRGLCRVGNCNPGEYLAKYCFEPVILCCKPLSPTPTKT (disulfide 5-34, 12-27, 17-35) [AvBD-12, avian β-defensin-12]",MIC-ls E. coli (ATCC 25922),E. coli (ATCC 25922); [9],32 µg/mL
same,MIC E. coli (ATCC 25922),E. coli (ATCC 25922); [10],256 µg/mL
same,MBC-ls E. coli (ATCC 25922),E. coli (ATCC 25922); [11],128 µg/mL
same,percent of killing of E. coli,[1]; [12],74.4%
same,percent of killing of P. aeruginosa,[2]; [12],35.5%
same,percent of killing of S. aureus,[3]; [12],52.9%
same,percent of killing of S. Typhimurium,[4]; [12],47.3%
same,MIC-ls S. aureus (ATCC 29213),S. aureus (ATCC 29213); [9],256 µg/mL
same,MIC S. aureus (ATCC 29213),S. aureus (ATCC 29213); [10],>256 µg/mL
same,MBC-ls S. aureus (ATCC 29213),S. aureus (ATCC 29213); [11],256 µg/mL
same,MIC-ls P. aeruginosa (ATCC 27853),[5]; [9],128 µg/mL
same,MIC P. aeruginosa (ATCC 27853),[5]; [10],>256 µg/mL
same,MBC-ls P. aeruginosa (ATCC 27853),[5]; [11],>256 µg/mL
same,"metabolic activity (viability relative to untreated control), CHO-K1",CHO-K1 cells,No significant difference was found
same,MIC-ls S. Typhimurium (ATCC 14028),[6]; [9],128 µg/mL
same,MIC S. Typhimurium (ATCC 14028),[6]; [10],>256 µg/mL
same,MBC-ls S. Typhimurium (ATCC 14028),[6]; [11],256 µg/mL
same,cytotoxicity to avian and mammalian cell lines,[7],non-cytotoxic
same,"metabolic activity (viability relative to untreated control), JAWSII",JAWSII cells,No significant difference was found
same,"metabolic activity (viability relative to untreated control), HD11",HD11 cells,No significant difference was found
same,"metabolic activity (viability relative to untreated control), MQ-NCSU",MQ-NCSU cells,No significant difference was found
GPRSANHKRGLARVGNANPGKYLAKYSFRPVILSSKPLSPTPTKT [AvBD-12A3],chemotactic index (C.I.) for JAWSII cells,"[8]; migrated cells with peptide / with chemotactic buffer, n = 5",3.74
same,"chemotactic activity for JAWSII cells, % of wild type",[8]; relative to AvBD-12,56.6 % of wild type
same,MBC-ls E. coli (ATCC 25922),"E. coli (ATCC 25922); ATCC 25922, 24 h",16 µg/mL
same,MIC E. coli (ATCC 25922),"E. coli (ATCC 25922); ATCC 25922, 24 h",128 µg/mL
same,MIC-ls E. coli (ATCC 25922),"E. coli (ATCC 25922); ATCC 25922, 24 h",4 µg/mL
same,killing potency against E. coli retained at 150 mM NaCl,"[1]; ATCC 25922, 2 h, 16 μg/ml",approximately 80%
same,percent of killing of E. coli,"[1]; ATCC 25922, 2 h, 16 μg/ml",100%
same,percent of killing of P. aeruginosa,"[2]; ATCC 27853, 2 h, 16 μg/ml",100%
same,killing potency against P. aeruginosa retained at 150 mM NaCl,"[2]; ATCC 27853, 2 h, 32 μg/ml",approximately 80%
same,percent of killing of S. aureus,"[3]; ATCC 29213, 2 h, 16 μg/ml",91.7%
same,killing activity against S. aureus retained at 150 mM NaCl,"[3]; ATCC 29213, 2 h, 64 μg/ml",30-60%
same,percent of killing of S. Typhimurium,"[4]; ATCC 14028, 2 h, 16 μg/ml",93.9%
same,killing activity against S. Typhimurium retained at 150 mM NaCl,"[4]; ATCC 14028, 2 h, 32 μg/ml",30-60%
same,MBC-ls S. aureus (ATCC 29213),"S. aureus (ATCC 29213); ATCC 29213, 24 h",256 µg/mL
same,MIC S. aureus (ATCC 29213),"S. aureus (ATCC 29213); ATCC 29213, 24 h",>256 µg/mL
same,MIC-ls S. aureus (ATCC 29213),"S. aureus (ATCC 29213); ATCC 29213, 24 h",128 µg/mL
same,MBC-ls P. aeruginosa (ATCC 27853),"[5]; ATCC 27853, 24 h",16 µg/mL
same,MIC P. aeruginosa (ATCC 27853),"[5]; ATCC 27853, 24 h",>256 µg/mL
same,MIC-ls P. aeruginosa (ATCC 27853),"[5]; ATCC 27853, 24 h",8 µg/mL
same,"metabolic activity (viability relative to untreated control), CHO-K1",CHO-K1 cells,No significant difference was found
same,MBC-ls S. Typhimurium (ATCC 14028),"[6]; ATCC 14028, 24 h",64 µg/mL
same,MIC S. Typhimurium (ATCC 14028),"[6]; ATCC 14028, 24 h",>256 µg/mL
same,MIC-ls S. Typhimurium (ATCC 14028),"[6]; ATCC 14028, 24 h",16 µg/mL
"SPIHACRYQRGVCIPGPCRWPYYRVGSCGSGLKSCCVRNRWA (disulfide 6-35, 13-28, 18-36) [AvBD-6, avian β-defensin-6, reference compound]",MIC-ls E. coli (ATCC 25922),E. coli (ATCC 25922); [9],4 µg/mL
same,MIC E. coli (ATCC 25922),E. coli (ATCC 25922); [10],128 µg/mL
same,MBC-ls E. coli (ATCC 25922),E. coli (ATCC 25922); [11],16 µg/mL
same,MIC-ls S. aureus (ATCC 29213),S. aureus (ATCC 29213); [9],256 µg/mL
same,MIC S. aureus (ATCC 29213),S. aureus (ATCC 29213); [10],256 µg/mL
same,MBC-ls S. aureus (ATCC 29213),S. aureus (ATCC 29213); [11],256 µg/mL
same,MIC-ls P. aeruginosa (ATCC 27853),[5]; [9],64 µg/mL
same,MIC P. aeruginosa (ATCC 27853),[5]; [10],>256 µg/mL
same,MBC-ls P. aeruginosa (ATCC 27853),[5]; [11],128 µg/mL
same,"metabolic activity (viability relative to untreated control), CHO-K1",CHO-K1 cells,No significant difference was found
same,MIC-ls S. Typhimurium (ATCC 14028),[6]; [9],16 µg/mL
same,MIC S. Typhimurium (ATCC 14028),[6]; [10],>256 µg/mL
same,MBC-ls S. Typhimurium (ATCC 14028),[6]; [11],64 µg/mL
same,cytotoxicity to avian and mammalian cell lines,[7],non-cytotoxic
same,"metabolic activity (viability relative to untreated control), JAWSII",JAWSII cells,No significant difference was found
same,"metabolic activity (viability relative to untreated control), HD11",HD11 cells,No significant difference was found
same,"metabolic activity (viability relative to untreated control), MQ-NCSU",MQ-NCSU cells,No significant difference was found

# — article PMC5324278, “Novel synthetic analogues of avian β-defensin-12: the role of charge, hydrophobicity, and disulfide bridges in biological functions” (BMC Microbiology, 2017)
